Results published in US9580449B2, “Compositions and methods for the production of pyrimidine and pyridine compounds with BTK inhibitory activity” (Merck Patent GmbH, priority 2011, dated 2017).

The compounds below were run against full-length human BTK (Homo sapiens (Human), UniProt Q06187) (assay: BTK IC50 enzyme assay (microfluidic off-chip mobility shift kinase assay)). Conditions: incubated for 90 min. at 27 C; read-out: Time Dependent BTK Enzyme Assay IC50.
Type: biochemical
Procedure, shortened: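 Read-out separates phosphorylated peptide product from substrate by charge/mass in a mobility shift format with full-length human BTK.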

Chain of full-length human BTK (Q06187 whole entry): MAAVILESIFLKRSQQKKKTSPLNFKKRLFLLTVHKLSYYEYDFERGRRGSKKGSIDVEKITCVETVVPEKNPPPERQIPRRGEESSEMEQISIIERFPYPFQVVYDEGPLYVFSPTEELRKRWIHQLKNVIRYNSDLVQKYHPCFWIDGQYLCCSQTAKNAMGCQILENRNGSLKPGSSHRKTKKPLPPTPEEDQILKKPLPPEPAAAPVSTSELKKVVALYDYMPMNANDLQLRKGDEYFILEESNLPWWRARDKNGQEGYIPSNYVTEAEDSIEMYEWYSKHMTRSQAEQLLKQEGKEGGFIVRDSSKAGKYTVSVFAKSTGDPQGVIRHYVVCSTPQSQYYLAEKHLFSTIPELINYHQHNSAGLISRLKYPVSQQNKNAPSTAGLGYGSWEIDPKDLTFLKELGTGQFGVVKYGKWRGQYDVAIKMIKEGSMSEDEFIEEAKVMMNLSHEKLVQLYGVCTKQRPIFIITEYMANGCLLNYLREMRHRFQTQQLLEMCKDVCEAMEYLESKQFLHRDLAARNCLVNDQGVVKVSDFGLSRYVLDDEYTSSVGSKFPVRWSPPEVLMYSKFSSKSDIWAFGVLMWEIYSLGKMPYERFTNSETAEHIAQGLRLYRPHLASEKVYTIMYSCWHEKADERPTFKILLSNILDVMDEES

Row | Compound | IC50 [nM]
1 | CC#CC(=O)Nc1cccc(-c2cnccc2Oc2ccc(Oc3ccccc3)cc2)c1 [A296, N-(3-(4-(4-phenoxyphenoxy)pyridin-3-yl)phenyl)but-2-ynamide] | < 1000
2 | C=CC(=O)N1CCC(CNc2ncnc(N)c2-c2ccc(Oc3ccccc3)c(F)c2F)CC1 [A88, 1-(4-(((6-amino-5-(2,3-difluoro-4-phenoxyphenyl)pyrimidin-4-yl)amino)methyl)piperidin-1-yl)prop-2-en-1-one] | < 100
3 | C=CC(=O)N[C@H]1C[C@H](O)C[C@@H](Nc2ncnc(N)c2-c2ccc(Oc3ccccc3)cc2)C1 (racemic) [A188, N-((1R,3S,5R)-3-((6-amino-5-(4-phenoxyphenyl)pyrimidin-4-yl)amino)-5-hydroxycyclohexyl)acrylamide] | < 1000
4 | C=CC(=O)N1CC[C@@H](COc2ncnc(N)c2-c2ccc(Oc3ccc(C#N)cc3)cc2)C1 [A201, (R)-4-(4-(4-((1-acryloylpyrrolidin-3-yl)methoxy)-6-aminopyrimidin-5-yl)phenoxy)benzonitrile] | < 1000
5 | Nc1ncnc(Oc2cccc(NC(=O)CCl)c2)c1-c1ccc(OCc2ccccc2)cc1 [A347, N-{3-[6-Amino-5-(4-benzyloxy-phenyl)-pyrimidin-4-yloxy]-phenyl}-2-chloro-acetamide] | < 100
6 | CN(C)C/C=C/C(=O)Nc1ccc(Oc2ncnc(N)c2-c2ccc(Oc3ccccc3)cc2)cc1 [A290, (E)-N-(4-((6-amino-5-(4-phenoxyphenyl)pyrimidin-4-yl)oxy)phenyl)-4-(dimethylamino)but-2-enamide] | < 1000
7 | C=CC(=O)Nc1cccc(Oc2ncnc(N)c2-c2cnc(OCc3ccccc3)nc2)c1 [A261, N-(3-((6-amino-2′-(benzyloxy)-[5,5′-bipyrimidin]-4-yl)oxy)phenyl)acrylamide] | < 100
8 | C=CC(=O)N1CC(Nc2ncnc(N)c2-c2ccc(Oc3ccccc3)cc2)C1 [A185, 1-(3-((6-amino-5-(4-phenoxyphenyl)pyrimidin-4-yl)amino)azetidin-1-yl)prop-2-en-1-one] | < 100
9 | Nc1ncnc(NCC2CCN(C(=O)/C=C/CN3CCCC3)CC2)c1-c1ccc(Oc2ccccc2)cc1 [A220, (E)-1-(4-(((6-amino-5-(4-phenoxyphenyl)pyrimidin-4-yl)amino)methyl)piperidin-1-yl)-4-(pyrrolidin-1-yl)but-2-en-1-one] | < 1000
10 | CN(C)C/C=C/C(=O)N[C@@H]1CCC[C@H](Nc2ncnc(N)c2-c2ccc(Oc3ccccc3)cc2)C1 (relative stereo) [A63, (E)-N-(cis-3-((6-amino-5-(4-phenoxyphenyl)pyrimidin-4-yl)amino)cyclohexyl)-4-(dimethylamino)but-2-enamide] | < 1000
11 | CN(C)C/C=C/C(=O)N1CCC(F)(CNc2ncnc(N)c2-c2ccc(Oc3ccccc3)cc2)CC1 [A227, (E)-1-(4-(((6-amino-5-(4-phenoxyphenyl)pyrimidin-4-yl)amino)methyl)-4-fluoropiperidin-1-yl)-4-(dimethylamino)but-2-en-1-one] | < 100
12 | C=CC(=O)N1CC[C@@H](COc2ncnc(N)c2-c2cnn(Cc3ccccc3)c2)C1 [A196, (R)-1-(3-(((6-amino-5-(1-benzyl-1H-pyrazol-4-yl)pyrimidin-4-yl)oxy)methyl)pyrrolidin-1-yl)prop-2-en-1-one] | < 1000
13 | CCC(=O)Nc1cccc(-c2cnccc2Oc2ccc(Oc3ccccc3)cc2)c1 [A319, N-(3-(4-(4-phenoxyphenoxy)pyridin-3-yl)phenyl)propionamide] | > 1000
14 | C=CC(=O)N1CCO[C@@H](COc2ncnc(N)c2-c2ccc(Oc3ccc(C#N)cc3)cc2)C1 [A200, (R)-4-(4-(4-((4-acryloylmorpholin-2-yl)methoxy)-6-aminopyrimidin-5-yl)phenoxy)benzonitrile] | < 1000
15 | C=CC(=O)NCc1cccc(-c2cnccc2Oc2ccc(Oc3ccccc3)cc2)c1 [A302, N-(3-(4-(4-phenoxyphenoxy)pyridin-3-yl)benzyl)acrylamide] | > 1000
16 | C=CC(=O)Nc1cccc(Oc2nc(N)ncc2-c2ccc(Oc3ccccc3)cc2)c1 [A271, N-(3-((2-amino-5-(4-phenoxyphenyl)pyrimidin-4-yl)oxy)phenyl)acrylamide] | < 100
